Test results published in BindingDB's records for doi:10.1021/acschembio.5b00755 (German Cancer Research Center (Dkfz), 2016).

Target: Methionine aminopeptidase 2 (Homo sapiens, UniProt P50579)
Assay: Biochemical Assays
Conditions: pH 7.5
Method: Stock solutions for all assays were prepared in DMSO (10 mM) and stored at −20 °C. Assays were performed in 96 well plates (Greiner) at a total reaction volume of 100 μL. […] Then, the substrate Met-Gly-Met-Met was added to a final concentration of 400 μM. After an incubation period of 15 min (HsMetAP1), 20 min (EcMetAP), or 60 min (HsMetAP2) at 37 °C, the enzyme reactionwas stopped by adding 10 μL 4% trifluoroacetic acid (TFA), and the plate was centrifuged at 1000g for 10 min. Detection of the product Gly-Met-Met was performed by HPLC: C18 column (Dr. Maisch, ReproSil-Pur 120 ODS-3, 3 μm, 50 × 2 mm). An 80 μL injection volume was eluted with mobile phases A (H2O and 0.1% TFA, filtered, degasse

Sequence of Methionine aminopeptidase 2 (P50579 whole entry): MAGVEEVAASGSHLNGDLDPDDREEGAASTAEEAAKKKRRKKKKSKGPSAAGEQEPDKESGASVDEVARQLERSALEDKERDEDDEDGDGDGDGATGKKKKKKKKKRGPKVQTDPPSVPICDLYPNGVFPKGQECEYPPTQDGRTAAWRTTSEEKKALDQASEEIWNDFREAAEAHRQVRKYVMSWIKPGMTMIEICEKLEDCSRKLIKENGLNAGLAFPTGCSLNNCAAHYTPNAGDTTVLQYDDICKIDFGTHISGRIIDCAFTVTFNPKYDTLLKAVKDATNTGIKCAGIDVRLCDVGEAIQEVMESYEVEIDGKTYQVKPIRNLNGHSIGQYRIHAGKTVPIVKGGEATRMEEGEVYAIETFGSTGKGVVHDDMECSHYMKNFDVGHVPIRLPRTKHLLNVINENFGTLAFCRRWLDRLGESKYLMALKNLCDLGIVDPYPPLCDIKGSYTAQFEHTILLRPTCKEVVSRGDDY

Structure (SMILES): COc1ccc(Cn2nnc3c2[C@]2(CC[C@H]3OC(=O)NCC(C)C)CO2)cc1 (relative stereo) [(2'R*,7R*)-3-(4-methoxybenzyl)-3,5,6,7-tetrahydrospiro[benzo[d][1,2,3]triazole-4,2'-oxiran]-7-yl isobutylcarbamate (32)]
- IC50: 600 nM

Structure (SMILES): COc1ccc(Cn2nnc3c2[C@]2(CC[C@H]3OC(=O)Nc3ccccc3)CO2)cc1 (relative stereo) [(2'R*,7R*)-3-(4-methoxybenzyl)-3,5,6,7-tetrahydrospiro[benzo[d][1,2,3]triazole-4,2'-oxiran]-7-yl phenylcarbamate (34)]
- IC50: 990 nM

Structure (SMILES): O=C(O[C@@H]1CC[C@]2(CO2)c2c1nnn2Cc1ccccc1)c1ccccc1 (relative stereo) [(2'R*,7R*)-3-benzyl-3,5,6,7-tetrahydrospiro [benzo[d][1,2,3]triazole-4,2'-oxiran]-7-yl benzoate (29a)]
- IC50: 1400 nM

Structure (SMILES): CC(C)NC(=O)O[C@@H]1CC[C@]2(CO2)c2c1nnn2Cc1ccccc1 (relative stereo) [(2'R*,7R*)-3-benzyl-3,5,6,7-tetrahydrospiro [benzo[d][1,2,3]triazole-4,2'-oxiran]-7-yl isopropylcarbamate (30a)]
- IC50: 780 nM

Structure (SMILES): O=C(O[C@H]1CC[C@]2(CO2)c2c1nnn2Cc1ccccc1)c1ccccc1 (relative stereo) [(2'R*,7S*)-3-benzyl-3,5,6,7-tetrahydrospiro [benzo[d][1,2,3]triazole-4,2'-oxiran]-7-yl benzoate (29b)]
- IC50: > 50000 nM

Structure (SMILES): CC(C)NC(=O)O[C@H]1CC[C@]2(CO2)c2c1nnn2Cc1ccccc1 (relative stereo) [(2'R*,7S*)-3-benzyl-3,5,6,7-tetrahydrospiro [benzo[d][1,2,3]triazole-4,2'-oxiran]-7-yl isopropylcarbamate (30b)]
- IC50: 46000 nM

Structure (SMILES): C=C1CCC(OC(=O)c2ccccc2)c2nnn(Cc3ccc(OC)cc3)c21 (centres undefined) [1-[(4-methoxyphenyl)methyl]-7-methylidene-4,5,6,7-tetrahydro-1H-1,2,3-benzotriazol-4-yl benzoate (16)]
- IC50: > 50000 nM

Structure (SMILES): Cc1ccccc1Cn1nnc2c1C1(CCC2=O)CO1 (centres undefined) [3-(2-methylbenzyl)-5,6-dihydrospiro[benzo[d][1,2,3]triazole-4,2'-oxiran]-7(3H)-one (23)]
- IC50: 2300 nM

Structure (SMILES): O=C1CCC2(CO2)c2c1nnn2Cc1ccc(C(F)(F)F)cc1 (centres undefined) [3-(4-(trifluoromethyl)benzyl)-5,6-dihydrospiro[benzo[d][1,2,3]triazole-4,2'-oxiran]-7(3H)-one (28)]
- IC50: 440 nM

Structure (SMILES): O=C1CCC2(CO2)c2c1nnn2Cc1ccc(Cl)cc1 (centres undefined) [3-(4-chlorobenzyl)-5,6-dihydrospiro[benzo[d][1,2,3]triazole-4,2'-oxiran]-7(3H)-one (27)]
- IC50: 520 nM

Structure (SMILES): O=C1CCC2(CO2)c2c1nnn2Cc1ccc(F)cc1 (centres undefined) [3-(4-fluorobenzyl)-5,6-dihydrospiro[benzo[d][1,2,3]triazole-4,2'-oxiran]-7(3H)-one (26)]
- IC50: 250 nM

Structure (SMILES): COc1ccc(Cn2nnc3c2C2(CCC3=O)CO2)cc1 (centres undefined) [3-(4-methoxybenzyl)-5,6-dihydrospiro[benzo[d][1,2,3]triazole-4,2'-oxiran]-7(3H)-one (14)]
- IC50: 460 nM

Structure (SMILES): N#Cc1cccc(Cn2nnc3c2C2(CCC3=O)CO2)c1 (centres undefined) [3-((7-oxo-6,7-dihydrospiro[benzo[d][1,2,3]triazole-4,2'-oxiran]-3(5H)-yl)methyl)benzonitrile (24)]
- IC50: 1100 nM

Structure (SMILES): O=C1CCC2(CO2)c2c1nnn2CC1CCCCC1 (centres undefined) [3-(cyclohexylmethyl)-5,6-dihydrospiro[benzo[d][1,2,3]triazole-4,2'-oxiran]-7(3H)-one (21)]
- IC50: > 50000 nM

Structure (SMILES): O=C1CCC2(CO2)c2c1nnn2Cc1ccc2ccccc2c1 (centres undefined) [3-(naphthalen-2-ylmethyl)-5,6-dihydrospiro[benzo[d][1,2,3]triazole-4,2'-oxiran]-7(3H)-one (25)]
- IC50: 590 nM

Structure (SMILES): O=C1CCC2(CO2)c2c1nnn2Cc1ccccc1 (centres undefined) [3-benzyl-5,6-dihydrospiro[benzo[d][1,2,3]triazole-4,2'-oxiran]-7(3H)-one (22)]
- IC50: 2900 nM

Structure (SMILES): COc1ccc(Cn2nnc3c2[C@]2(CC[C@H]3OC(=O)c3ccccc3)CO2)cc1 [(2'R*,7R*)-3-(4-methoxybenzyl)-3,5,6,7-tetrahydrospiro[benzo[d][1,2,3]triazole-4,2'-oxiran]-7-yl benzoate (17a)]
- IC50: 930 nM

Structure (SMILES): COc1ccc(Cn2nnc3c2[C@]2(CC[C@@H]3OC(=O)c3ccccc3)CO2)cc1 [(2'R*,7S*)-3-(4-methoxybenzyl)-3,5,6,7-tetrahydrospiro[benzo[d][1,2,3]triazole-4,2'-oxiran]-7-yl benzoate (17b)]
- IC50: 35000 nM

Structure (SMILES): COc1ccc(Cn2nnc3c2[C@]2(CC[C@H]3NC(=O)OCC(C)C)CO2)cc1 [isobutyl ((2'R*,7R*)-3-(4-methoxybenzyl)-3,5,6,7-tetrahydrospiro[benzo[d][1,2,3]triazole-4,2'-oxiran]-7-yl)carbamate (35)]
- IC50: 600 nM
